Assay results taken from patent US7053194B2, “Compositions and methods for p53-mediated repression of gene expression” (Fox Chase Cancer Center, priority 1999, dated 2006).

How the values were obtained:
MCF-7 cells = test: Immunoprecipitation-western analysis of p53 and p53-mSin3a complexes; assay type: cell-based, human
Description: Sub-confluent cultures of MCF 7 and A2780 cells were treated with 100 nM trichostatin A (TSA, Sigma)for 2 hours, followed by incubation with 0.5 ug/ml adriamycin (doxorubicin, Sigma) for the indicated timepoints. Va15 cells grown at 39 degrees were treated with 100 nM TSA for two hours, followed by temperature shift to 32 degrees for 12 hours. p53 induction was monitored by western analysis of 100 ug protein as described (Murphy et al., Genes & Devel. 10:2971–2980, 1996), using 0.1ug/ml DO-1 (Ab-6, Calbiochem) or 421 (Ab-1, Calbiochem). MDM2 induction was monitored using the monoclonal antibody 2A10, kindly provided by Arnold Levine (Rockefeller University). For UV treatments, cells were irradiated with 4 J/m2 of UV-C with a Spectroline X series ultraviolet lamp, and output was monitored with a traceable UV light meter (Fisher Scientific). For ALLN treatment, MCF-7 cells were treated with 50 uM ALLN (calpain I inhibitor, Sigma) made in DMSO (dimethyl sulfoxide, Sigma) or with DMSO alone for 2 hours prior to harvesting.
Sub-confluent cultures of cells were harvested and lysed in NP-40 buffer supplemented with protease inhibitors (1 mM PMSF, 10 ug/ml pepstatin A, 10 ug/ml aprotinin, and 5ug/ml leupeptin). Protein concentrations were determined by the method of Bradford (BioRad). Equal ug amounts of protein (between 2.0 and 3.0 mg) were immunoprecipitated with 1 ug of each antibody, except for Va15 immunoprecipitations, which used 1000 ug protein, as described (Murphy et al., Genes & Devel. 10:2971–2980, 1996). For p300, antibody N15 (Santa Cruz Biotechnology) and AB-1 (Calbiochem) yielded similar results. Each IP was washed twice in NP-40 buffer (Wu, et al., Genes & Devel. 7:1126–1132, 1993), followed by 2 washes in RIPA buffer (50 mM Tris pH 7.4/150 mM NaCl/1% Triton X 100/0.1% SDSI 1% Na deoxycholate). Immunoprecipitations were run on 7.5–10% SDS-PAGE gels and transferred overnight onto Immuno-Blot PVDF membrane (BioRad). […]
These complexes persisted under stringent washing conditions (RIPA buffer washes, see Materials and Methods), and were not present using control antisera (rabbit IgG, lane 1). […] We next analyzed the p53-mSin3a interaction following post-translational stabilization of p53 mediated by DNA damaging agents. […]
We next analyzed the time-course of the p53-mSin3a interaction following exposure of cells to the DNA damaging agent adriamycin (doxorubicin). Both p53-mSin3a and p53 p300 complexes were monitored by IP-western analysis in a time course following adriamycin treatment of MCF-7 cells. As a control, p53 was immunoprecipitated using polyclonal antisera generated against full-length p53 (Santa Cruz Biotechnology). p53 levels were also assessed at each time point by western analyses (data not shown). […]

melanoma cells (CaCl) = test: Northern analysis of survivin mRNA after doxorubicin; assay type: cell-based, human; conditions: 0.5 ug/mL doxorubicin, as early as twelve hours
Description: MCF-7 cells were maintained in RPMI-1640 supplemented with 10% fetal bovine serum and 100 units/ml of penicillin and streptomycin. The human melanoma cell line CaCl, and the derivative clone expressing the HPV E6 gene, were cultured as described (Ahn et al., Oncogene). The human osteosarcoma cell lines Saos-2 and U2-OS (kindly provided by Peter Adams, Fox Chase Cancer Center), the murine p21 knock-out fibroblasts (kindly provided by James Sherley, MIT) and the human lung adenocarcinoma cell line H1299 were cultured in DMEM supplemented with 10% fetal bovine serum and 100 units/ml of penicillin and streptomycin. Murine Va15 cells, containing the temperature-sensitive Valine 135 allele of p53, were maintained as described (Wu, et al., Genes & Devel. 7:1126–1132, 1993). All cells were grown at 37° C. […] For treatment with ultra-violet light, cells were irradiated with 0–10 J/m2 (as noted) of UV-C with a Spectroline X series ultraviolet lamp, and output was monitored with a traceable UV light meter (Fisher Scientific). […]
The full-length coding region for survivin was generated by reverse transcription-polymerase chain reaction (RT-PCR) using 5 ug of total RNA from the H1299 human lung adenocarcinoma cell line, using the Access RT-PCR kit (Promega) and the following oligonucleotides: forward 5′ […] […] Autoradiographs were quantitated using NIH image software. […]

COc1cccc2c1C(=O)c1c(O)c3c(c(O)c1C2=O)C[C@@](O)(C(=O)CO)C[C@@H]3O[C@H]1C[C@H](N)[C@H](O)[C@H](C)O1 [adriamycin, doxorubicin]
total p53 protein (MCF-7 cells; MCF-7, adriamycin, four and eight hours of treatment): significant increase in total p53 protein | amount of p53 in mSin3a complexes, increase (MCF-7 cells; MCF-7 treated with doxorubicin): approximately five-fold greater | mRNA levels for survivin (melanoma cells (CaCl)): marked decreases in mRNA levels for survivin
